{"source": "paper PMC10580393", "about": "“The Psychedelic N,N-Dipropyltryptamine Prevents Seizures in a Mouse Model of Fragile X Syndrome via a Mechanism that Appears Independent of Serotonin and Sigma1 Receptors” (ACS Pharmacology & Translational Science, 2023)", "conditions_in_all_cases": "read-out: DPT", "key": {"[1]": {"target": "T1, human 5-HT2A receptor (h5-HT2AR) (Homo sapiens, UniProt P28223)", "T1 construct": "gene HTR2A; receptor cDNA (cDNA Resource Center) transiently expressed in HEK293T; with Rluc8-Galphaq, Gbeta3, GFP2-Ggamma9 for function", "T1 sequence (P28223 whole entry)": "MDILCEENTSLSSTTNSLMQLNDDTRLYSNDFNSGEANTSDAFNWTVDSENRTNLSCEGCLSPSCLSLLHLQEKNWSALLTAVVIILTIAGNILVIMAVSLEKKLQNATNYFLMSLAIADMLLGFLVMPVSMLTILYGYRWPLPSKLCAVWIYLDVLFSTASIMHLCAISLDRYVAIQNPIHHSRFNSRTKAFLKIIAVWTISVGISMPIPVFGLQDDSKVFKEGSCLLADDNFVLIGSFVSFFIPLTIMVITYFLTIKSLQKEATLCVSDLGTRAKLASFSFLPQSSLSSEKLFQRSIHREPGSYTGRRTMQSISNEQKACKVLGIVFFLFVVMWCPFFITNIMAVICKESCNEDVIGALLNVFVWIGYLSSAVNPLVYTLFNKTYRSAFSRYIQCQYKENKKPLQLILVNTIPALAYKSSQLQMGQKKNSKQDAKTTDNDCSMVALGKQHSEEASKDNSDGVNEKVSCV", "assay": "radioligand competition binding, cell membranes", "description": "radioligand competition binding, cell membranes on human 5-HT2A receptor (h5-HT2AR)"}, "[2]": {"target": "T2, human 5-HT1A receptor (h5-HT1AR) (Homo sapiens, UniProt P08908)", "T2 construct": "gene HTR1A; receptor cDNA (cDNA Resource Center) transiently expressed in HEK293T; with Rluc8-Galphai3, Gbeta3, GFP2-Ggamma9 for function", "T2 sequence (P08908 whole entry)": "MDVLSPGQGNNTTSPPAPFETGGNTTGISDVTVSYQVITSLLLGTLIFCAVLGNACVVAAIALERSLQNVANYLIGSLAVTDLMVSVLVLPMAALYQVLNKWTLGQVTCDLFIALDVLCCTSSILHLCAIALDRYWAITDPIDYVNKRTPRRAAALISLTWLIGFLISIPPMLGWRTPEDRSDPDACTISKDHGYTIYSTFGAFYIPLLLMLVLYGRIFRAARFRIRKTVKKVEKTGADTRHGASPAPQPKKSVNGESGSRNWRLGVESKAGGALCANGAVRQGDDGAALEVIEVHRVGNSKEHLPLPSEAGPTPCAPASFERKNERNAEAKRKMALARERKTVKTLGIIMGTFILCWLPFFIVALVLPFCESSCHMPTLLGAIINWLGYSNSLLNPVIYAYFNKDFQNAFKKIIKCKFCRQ", "assay": "TRUPATH BRET2 G protein activation assay, HEK293T", "assay_type": "cell-based", "description": "TRUPATH BRET2 G protein activation assay, HEK293T on human 5-HT1A receptor (h5-HT1AR)"}, "[3]": {"target": "T2, human 5-HT1A receptor (h5-HT1AR)", "assay": "radioligand competition binding, cell membranes", "description": "radioligand competition binding, cell membranes on human 5-HT1A receptor (h5-HT1AR)"}, "[4]": {"target": "T1, human 5-HT2A receptor (h5-HT2AR)", "assay": "TRUPATH BRET2 G protein activation assay, HEK293T", "assay_type": "cell-based", "description": "TRUPATH BRET2 G protein activation assay, HEK293T on human 5-HT2A receptor (h5-HT2AR)"}, "[5]": {"target": "T3, human 5-HT1B receptor (h5-HT1BR) (Homo sapiens, UniProt P28222)", "T3 construct": "gene HTR1B; receptor cDNA (cDNA Resource Center) transiently expressed in HEK293T; with Rluc8-Galphai3, Gbeta3, GFP2-Ggamma9 for function", "T3 sequence (P28222 whole entry)": "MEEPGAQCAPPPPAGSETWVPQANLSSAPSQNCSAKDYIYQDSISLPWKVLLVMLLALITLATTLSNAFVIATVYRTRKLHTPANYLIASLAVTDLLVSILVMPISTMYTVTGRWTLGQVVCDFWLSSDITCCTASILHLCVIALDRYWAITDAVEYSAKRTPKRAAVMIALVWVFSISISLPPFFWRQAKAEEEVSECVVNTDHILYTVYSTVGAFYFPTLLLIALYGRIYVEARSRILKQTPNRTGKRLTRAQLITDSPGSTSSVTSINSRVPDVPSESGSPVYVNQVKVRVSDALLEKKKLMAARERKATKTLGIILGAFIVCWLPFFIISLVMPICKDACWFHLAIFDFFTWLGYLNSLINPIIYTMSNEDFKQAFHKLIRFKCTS", "assay": "radioligand competition binding, cell membranes", "description": "radioligand competition binding, cell membranes on human 5-HT1B receptor (h5-HT1BR)"}, "[6]": {"target": "T3, human 5-HT1B receptor (h5-HT1BR)", "assay": "TRUPATH BRET2 G protein activation assay, HEK293T", "assay_type": "cell-based", "description": "TRUPATH BRET2 G protein activation assay, HEK293T on human 5-HT1B receptor (h5-HT1BR)"}}}
{"smiles": "CCCN(CCC)CCc1c[nH]c2ccccc12", "note": "[DPT]", "values": [{"measurement": "Ki", "setting": "[1]", "result": 3, "unit": "nM"}, {"measurement": "EC50", "setting": "[2]", "result": 2430, "unit": "nM"}, {"measurement": "Ki", "setting": "[3]", "result": 1640, "unit": "nM"}, {"measurement": "EC50", "setting": "[4]", "result": 451, "unit": "nM"}, {"measurement": "Ki", "setting": "[5]", "result": 8080, "unit": "nM"}, {"measurement": "EC50", "setting": "[6]", "result": 1210, "unit": "nM"}]}
